# US20250255850A1, “PHARMACEUTICAL COMPOSITIONS FOR TREATING NEUROLOGICAL CONDITIONS” (YISSUM RESEARCH DEVELOPMENT COMPANY OF THE HEBREW …, priority 2021, published 2025)
# Tested on: SH-SY5Y cells
# Assay: Western blot of 3-nitrotyrosine, mTOR signaling pathway components and synaptophysin
# Format: cell-based, human
# Method: Human NB SH-SY5Y cells were obtained from the American Type Culture Collection (ATCC) and maintained in Dulbecco's modified Eagle's medium (DMEM) and Ham's F-12 (1:1) supplemented with 10% fetal bovine serum, 2 mM L-glutamine, and 100 U/ml penicillin-G/100 […] streptomycin in a humidified atmosphere (37° C., 5% CO2). Cells were plated onto 25 cm^2 and 75 cm^2 plates at a density of 7.0×10^5 and 2.1×10^6 cells/cm^2 respectively for Western blotting (WB) and 1×10^5 for immunofluorescence. The SH-SY5Y cells were treated with 100 μM 7-nitroindazole (7-NI) for 24 hours (Fujibayashi et al., 2015). This concentration was confirmed in a dose-response experiment (FIG. 14A) using an MTT viability assay.
# SH-SY5Y cells were plated in 6 well plates, as well as on 22 mm^2 coverslips at a density of 6.0×10^4 cells/cm^2 and transfected with 20 nM nNOS siRNA (NOSIHSS1072, Invitrogen) for 24 hours, with the use of Lipofectamine RNAi MAX (56530, Invitrogen) according to the manufacturer's protocol. Then cells were washed with phosphate-buffered saline (PBS) and harvested for WB and fixed for immunofluorescence (Fujibayashi et al., 2015).
# Cells were lysed in ice-cold RIPA buffer containing 50 mM Tris-HCl, 1% Nonidet P-40, 0.25% sodium deoxycholate, 150 mM NaCl, protease-, and phosphatase inhibitor cocktails, pH 7.4. After sonication, the lysates were centrifuged at 17,000 g for 30 minutes at 4° C., and the supernatant was collected. The protein concentrations were determined with the BCA protein assay. Proteins were resolved by SDS-PAGE, transferred to a PVDF membrane, and probed with the following antibodies: anti-pMTOR (rabbit, diluted 1:1000), anti-mTOR (rabbit, diluted 1:1000), anti-TSC2 (rabbit, diluted 1:1000), anti-nNOS (rabbit, diled 1:1000), anti-pAKT (rabbit, diluted 1:1000), anti-AKT (rabbit, diluted 1:1000), anti-pRPS6 (rabbit, diluted 1:1000), anti-RPS6 (mouse, diluted 1:1000), anti-synaptophysin (mouse, diluted 1:1000), anti-β-actin (rabbit, diluted 1:1000), anti-3-Nitrotyrosine (rabbit, diluted 1:5000) from Abcam. All primary antibodies, except anti-3-Nitrosine, were purchased from Cell Signaling Technology. The blots were then visualized using an enhanced chemiluminescence (ECL) system (Choi et al., 2018).
# [1] = 7-NI 100 μM 24 hours or nNOS silencing
compound,measurement,setting,value
"O=[N+]([O-])c1cccc2cn[nH]c12 [7-NI, 7-nitroindazole]","levels of synaptophysin (Syp, Western blot)",7-NI 100 μM 24 hours or genetic ablation of nNOS,significantly decreased the levels of synaptophysin
same,3-Ntyr levels (Western blot),7-NI 100 μM 24 hours or nNOS knockdown,halved
same,levels of TSC-2 (Western blot),[1],significant increase in the levels of TSC-2
same,phosphorylation of RPS6 (Western blot),[1],reduced
same,phosphorylation of mTOR (Western blot),[1],decrease in phosphorylation of mTOR
same,phosphorylation of protein kinase-B (AKT) (Western blot),[1],reduced
